Reference: patent publication US11596664B2, “Plant extracts made of Sideritis and use thereof to boost cognitive performance” (Finzelberg GmbH & Co. KG, priority 2010, dated 2023)

System: serotonin absorption (serotonergic re-uptake)
Test: Serotonin absorption inhibition, test system according to EP 1 634 602
Type: biochemical
Conditions: reference substance at 10 μm; defines 100%
From the text: Serotonergic neurotransmission being influenced is described for plants of the genus Sideritis in the patent application EP 1 634 602. […] The experimental set-up described in paragraphs [0046] to [0054] for measuring serotonergic re-uptake rates was used for initial screening of suitable species for the tests.
50 g of the herbal drug is mixed twice with 15 times the quantity of boiling water and extracted with agitation. Both maceration extracts are allowed to stand at room temperature to cool down and combined. The two combined macerations are filtered off with a fluted filter and concentrated to a soft extract using a rotary evaporator. The extractive yields determined for the different species are shown below. In order to test for the serotonin absorption inhibition, the extracts were all weighed in at the same native content and assayed with a measuring concentration of 50 μg/ml in the test system according to EP 1 634 602.
50 g of the herb Sideritis was mixed twice at 45° C. with 15 times the quantity of a mixture of water and ethanol and extracted with agitation. Both maceration extracts were allowed to stand at room temperature to cool down and combined. The two combined macerations were filtered off with a fluted filter and concentrated to a soft extract using a rotary evaporator. The extractive yields determined for the different species are shown below. […]

COCCCC/C(=N\OCCN)c1ccc(C(F)(F)F)cc1 [fluvoxamine]
Serotonin absorption inhibition, positive control: 100%
